Source: article PMC5421785, “Citrullination only infrequently impacts peptide binding to HLA class II MHC” (PLoS ONE, 2017)
Like-named read-outs stand apart in the source and are kept apart here. Square brackets hold non-standard residues; d marks the D form. Peptide text beside a SMILES is read from it. Cit = NC(=O)NCCC[C@H](N)C(=O)O

How the values were obtained:
HLA-DRB1*01:01 = molecular target: T1, HLA-DRB1*01:01 (Homo sapiens, UniProt P01903+P01911, A100R/D57E/F55L/F60I/F76Y/I96L/L162R/M171V/P40L/Q125E/R42F/V115G/Y59C); assay: HLA class II peptide binding, inhibition of radiolabeled peptide binding to purified MHC
T1 construct: EBV transformed homozygous cell lines were used as sources of MHC molecules; endogenous in cells; host or cells: EBV transformed homozygous cell lines

HLA-DRB1*04:01 = molecular target: T2, HLA-DRB1*04:01 (Homo sapiens, UniProt P01903+P01911, A100K/A169T/F76Y/I96L/K127E/L162R/M171V/N62H/P40V/Q125Y/R42H/S133A/S149N/S66Y/V115G/V209L/W38E); assay: as above
T2 construct: EBV transformed homozygous cell lines were used as sources of MHC molecules; endogenous in cells; host or cells: EBV transformed homozygous cell lines

[1] = citrullinated 15-mer peptide (X = citrulline), purified HLA-DRB1*01:01, read-out: DRB1*01:01 binding capacity, Cit peptide (IC50 nM)
[2] = citrullinated 15-mer peptide (X = citrulline), purified HLA-DRB1*04:01, read-out: DRB1*04:01 binding capacity, Cit peptide (IC50 nM)
[3] = citrullinated peptide as listed (X at Cit position), read-out: DRB1*01:01 binding capacity Cit peptide (IC50 nM)
[4] = citrullinated peptide as listed (X at Cit position), read-out: DRB1*04:01 binding capacity Cit peptide (IC50 nM)
[5] = citrullinated 15-mer (X), purified MHC, inhibition of radiolabeled peptide binding, dash = IC50 >40,000 nM, read-out: DRB1*01:01 binding capacity, Cit peptide (IC50 nM)
[6] = citrullinated 15-mer (X), purified MHC, inhibition of radiolabeled peptide binding, dash = IC50 >40,000 nM, read-out: DRB1*04:01 binding capacity, Cit peptide (IC50 nM)

| SMILES | IC50 (HLA-DRB1*01:01; [1]) | IC50 (HLA-DRB1*04:01; [2]) | further results |
| --- | --- | --- | --- |
| CC(C)C[C@H](NC(=O)CNC(=O)[C@H](CCCNC(N)=O)NC(=O)[C@H](C)NC(=O)CNC(=O)[C@@H]1CCCN1C(=O)[C@@H](N)CC(C)C)C(=O)N[C@H](C(=O)NCC(=O)N[C@@H](CCCNC(=N)N)C(=O)N1CCC[C@H]1C(=O)NCC(=O)N[C@@H](CC(=O)O)C(=O)N[C@@H](C)C(=O)NCC(=O)O)[C@@H](C)O [LPGAXGLTGRPGDAG] (H-LPGA[Cit]GLTGRPGDAG-OH) | 2930 nM | > 40000 nM | – |
| CC[C@H](C)[C@H](NC(=O)[C@H](CC(C)C)NC(=O)[C@H](CC(C)C)NC(=O)[C@@H](NC(=O)[C@H](CCCNC(N)=O)NC(=O)[C@H](CCCCN)NC(=O)[C@H](CO)NC(=O)[C@H](Cc1c[nH]cn1)NC(=O)[C@@H](NC(=O)[C@H](CC(=O)O)NC(=O)[C@@H](NC(=O)[C@H](CC(C)C)NC(=O)[C@@H]1CCCN1C(=O)[C@@H](N)CC(C)C)C(C)C)[C@@H](C)O)[C@@H](C)O)C(=O)N[C@@H](CCCCN)C(=O)O [LPLVDTHSKXTLLIK] (H-LPLVDTHSK[Cit]TLLIK-OH) | 344 nM | 2590 nM | – |
| CSCC[C@H](NC(=O)[C@H](Cc1ccc(O)cc1)NC(=O)[C@H](CCC(N)=O)NC(=O)[C@@H](N)CC(C)C)C(=O)N[C@@H](CCCNC(=N)N)C(=O)N[C@@H](C)C(=O)N[C@@H](CC(=O)O)C(=O)N[C@@H](CCC(N)=O)C(=O)N[C@@H](C)C(=O)N[C@@H](C)C(=O)NCC(=O)NCC(=O)N[C@@H](CC(C)C)C(=O)N[C@@H](CCCNC(N)=O)C(=O)N[C@@H](CCC(N)=O)C(=O)O [LQYMRADQAAGGLXQ] (H-LQYMRADQAAGGL[Cit]Q-OH) | – | – | IC50 (HLA-DRB1*01:01; [3]): 64 nM; IC50 (HLA-DRB1*04:01; [4]): 83 nM |
| CSCC[C@H](NC(=O)[C@H](Cc1ccc(O)cc1)NC(=O)[C@H](CCC(N)=O)NC(=O)[C@@H](N)CC(C)C)C(=O)N[C@@H](CCCNC(N)=O)C(=O)N[C@@H](C)C(=O)N[C@@H](CC(=O)O)C(=O)N[C@@H](CCC(N)=O)C(=O)N[C@@H](C)C(=O)N[C@@H](C)C(=O)NCC(=O)NCC(=O)N[C@@H](CC(C)C)C(=O)N[C@@H](CCCNC(=N)N)C(=O)N[C@@H](CCC(N)=O)C(=O)O [LQYMXADQAAGGLRQ] (H-LQYM[Cit]ADQAAGGLRQ-OH) | – | – | IC50 (HLA-DRB1*01:01; [3]): 16 nM; IC50 (HLA-DRB1*04:01; [4]): 69 nM |
| CC(C)C[C@H](NC(=O)[C@@H](NC(=O)[C@H](C)NC(=O)[C@H](C)NC(=O)[C@@H](NC(=O)[C@@H](N)CC(C)C)C(C)C)C(C)C)C(=O)N[C@@H](CCCNC(N)=O)C(=O)N[C@@H](CS)C(=O)N[C@@H](CCC(N)=O)C(=O)NCC(=O)N[C@@H](CCC(N)=O)C(=O)N[C@@H](CC(=O)O)C(=O)N[C@H](C(=O)N[C@@H](CCC(N)=O)C(=O)N[C@@H](CCC(=O)O)C(=O)O)C(C)C [LVAAVLXCQGQDVQE] (H-LVAAVL[Cit]CQGQDVQE-OH) | 93 nM | 32700 nM | – |
| CC[C@H](C)[C@H](NC(=O)[C@H](CCC(=O)O)NC(=O)[C@@H](NC(=O)[C@H](CC(=O)O)NC(=O)[C@H](CC(C)C)NC(=O)[C@H](C)NC(=O)[C@@H](N)CCSC)[C@@H](C)CC)C(=O)N[C@@H](C)C(=O)N[C@H](C(=O)N[C@@H](Cc1ccc(O)cc1)C(=O)N[C@@H](CCCNC(N)=O)C(=O)N[C@@H](CCCCN)C(=O)N[C@@H](CC(C)C)C(=O)N[C@@H](CC(C)C)C(=O)N[C@@H](CCC(=O)O)C(=O)O)[C@@H](C)O [MALDIEIATYXKLLE] (H-MALDIEIATY[Cit]KLLE-OH) | 64 nM | 4950 nM | – |
| CSCC[C@H](N)C(=O)N[C@@H](C)C(=O)N[C@@H](CCCNC(=N)N)C(=O)N[C@@H](Cc1c[nH]cn1)C(=O)N[C@@H](CC(C)C)C(=O)N[C@@H](CCCNC(N)=O)C(=O)N[C@@H](CCC(=O)O)C(=O)N[C@@H](Cc1ccc(O)cc1)C(=O)N[C@@H](CCC(N)=O)C(=O)N[C@@H](CC(=O)O)C(=O)N[C@@H](CC(C)C)C(=O)N[C@@H](CC(C)C)C(=O)N[C@@H](CC(N)=O)C(=O)N[C@H](C(=O)N[C@@H](CCCCN)C(=O)O)C(C)C [MARHLXEYQDLLNVK] (H-MARHL[Cit]EYQDLLNVK-OH) | 577 nM | 3130 nM | – |
| CSCC[C@H](N)C(=O)N[C@@H](C)C(=O)N[C@@H](CCCNC(N)=O)C(=O)N[C@@H](Cc1c[nH]cn1)C(=O)N[C@@H](CC(C)C)C(=O)N[C@@H](CCCNC(=N)N)C(=O)N[C@@H](CCC(=O)O)C(=O)N[C@@H](Cc1ccc(O)cc1)C(=O)N[C@@H](CCC(N)=O)C(=O)N[C@@H](CC(=O)O)C(=O)N[C@@H](CC(C)C)C(=O)N[C@@H](CC(C)C)C(=O)N[C@@H](CC(N)=O)C(=O)N[C@H](C(=O)N[C@@H](CCCCN)C(=O)O)C(C)C [MAXHLREYQDLLNVK] (H-MA[Cit]HLREYQDLLNVK-OH) | 494 nM | 4320 nM | – |
| CC[C@H](C)[C@H](NC(=O)[C@@H](N)CCSC)C(=O)N[C@@H](CCCNC(N)=O)C(=O)N[C@@H](CC(C)C)C(=O)NCC(=O)N[C@@H](C)C(=O)N1CCC[C@H]1C(=O)N[C@@H](CCC(N)=O)C(=O)N[C@H](C(=O)N[C@@H](CC(C)C)C(=O)N[C@H](C(=O)N[C@@H](CC(C)C)C(=O)N[C@@H](CC(C)C)C(=O)N[C@H](C(=O)N[C@@H](CC(C)C)C(=O)O)[C@@H](C)O)C(C)C)[C@@H](C)O [MIXLGAPQTLVLLTL] (H-MI[Cit]LGAPQTLVLLTL-OH) | 15 nM | 641 nM | – |
| CSCC[C@H](NC(=O)[C@H](CCCNC(N)=O)NC(=O)[C@H](CCCNC(=N)N)NC(=O)[C@H](Cc1ccc(O)cc1)NC(=O)[C@H](CO)NC(=O)[C@H](CO)NC(=O)[C@H](CO)NC(=O)[C@H](CO)NC(=O)[C@@H](NC(=O)[C@H](CO)NC(=O)[C@H](CCCNC(=N)N)NC(=O)[C@@H](NC(=O)[C@H](CO)NC(=O)[C@@H](N)CCSC)[C@@H](C)O)C(C)C)C(=O)N[C@@H](Cc1ccccc1)C(=O)O [MSTRSVSSSSYRXMF] (H-MSTRSVSSSSYR[Cit]MF-OH) | – | – | IC50 (HLA-DRB1*01:01; [5]): 672 nM; IC50 (HLA-DRB1*04:01; [6]): 443 nM |
| CSCC[C@H](NC(=O)[C@H](CCCNC(=N)N)NC(=O)[C@H](CCCNC(N)=O)NC(=O)[C@H](Cc1ccc(O)cc1)NC(=O)[C@H](CO)NC(=O)[C@H](CO)NC(=O)[C@H](CO)NC(=O)[C@H](CO)NC(=O)[C@@H](NC(=O)[C@H](CO)NC(=O)[C@H](CCCNC(=N)N)NC(=O)[C@@H](NC(=O)[C@H](CO)NC(=O)[C@@H](N)CCSC)[C@@H](C)O)C(C)C)C(=O)N[C@@H](Cc1ccccc1)C(=O)O [MSTRSVSSSSYXRMF] (H-MSTRSVSSSSY[Cit]RMF-OH) | – | – | IC50 (HLA-DRB1*01:01; [5]): 1080 nM; IC50 (HLA-DRB1*04:01; [6]): 980 nM |
| CSCC[C@H](NC(=O)[C@H](CCCNC(=N)N)NC(=O)[C@H](CCCNC(=N)N)NC(=O)[C@H](Cc1ccc(O)cc1)NC(=O)[C@H](CO)NC(=O)[C@H](CO)NC(=O)[C@H](CO)NC(=O)[C@H](CO)NC(=O)[C@@H](NC(=O)[C@H](CO)NC(=O)[C@H](CCCNC(N)=O)NC(=O)[C@@H](NC(=O)[C@H](CO)NC(=O)[C@@H](N)CCSC)[C@@H](C)O)C(C)C)C(=O)N[C@@H](Cc1ccccc1)C(=O)O [MSTXSVSSSSYRRMF] (H-MST[Cit]SVSSSSYRRMF-OH) | – | – | IC50 (HLA-DRB1*01:01; [5]): 573 nM; IC50 (HLA-DRB1*04:01; [6]): 1080 nM |
| CC(C)C[C@H](NC(=O)[C@H](C)NC(=O)[C@H](CC(=O)O)NC(=O)[C@@H](N)CC(N)=O)C(=O)N[C@@H](CCCNC(=N)N)C(=O)N[C@@H](CCC(N)=O)C(=O)N[C@@H](C)C(=O)N[C@@H](CCCCN)C(=O)N[C@@H](CCC(N)=O)C(=O)N[C@@H](CCC(=O)O)C(=O)N[C@@H](CO)C(=O)N[C@H](C(=O)N[C@@H](CCC(=O)O)C(=O)N[C@@H](Cc1ccc(O)cc1)C(=O)N[C@@H](CCCNC(N)=O)C(=O)O)[C@@H](C)O [NDALRQAKQESTEYX] (H-NDALRQAKQESTEY[Cit]-OH) | 34200 nM | 39500 nM | – |
